Results published in ChEMBL document CHEMBL1201862, “PubChem BioAssay data set” (2004).
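Results reflect a 48-hour exposure of cells in 96-well plates to compound at five concentrations. GI50 = concentration required for 50% inhibition of growth.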 Active and inactive are the calls of the source. Rule as the data show it: active = GI50 up to about 1.1 µM and inactive = higher.

Tests used:
Assay in all cases: DTP human tumour cell line panel, 48 h
XF498 = tested on: XF498
DMS-273 = tested on: DMS-273
DLD-1 = tested on: DLD-1
M19-MEL = tested on: M19-MEL
SNB-78 = tested on: SNB-78
RXF 631 = tested on: RXF 631
DMS-114 = tested on: DMS-114
LXFL 529 = tested on: LXFL 529
BT-549 = tested on: BT-549

| Compound | GI50 (XF498) | GI50 (DMS-273) | GI50 (DLD-1) | GI50 (M19-MEL) | GI50 (SNB-78) | GI50 (RXF 631) | GI50 (DMS-114) | GI50 (LXFL 529) | GI50 (BT-549) |
| --- | --- | --- | --- | --- | --- | --- | --- | --- | --- |
| COC(=O)CC1CC2(C(=O)OC)c3[nH]c4ccccc4c3CCN2C1=O (stereo not drawn) | > 100 µM (inactive) | > 100 µM (inactive) | > 100 µM (inactive) | > 100 µM (inactive) | > 100 µM (inactive) | 17.5 µM (inactive) | > 100 µM (inactive) | > 100 µM (inactive) |  |
| CCOC(=O)c1cc(C(=O)O)c(=O)n2c1[nH]c1ccccc12 | > 100 µM (inactive) | 56.1 µM (inactive) | 99.8 µM (inactive) | > 100 µM (inactive) | > 100 µM (inactive) | > 100 µM (inactive) | > 100 µM (inactive) | 75.7 µM (inactive) |  |
| O=C1/C(=C/c2ccc(O)cc2)CCC1CNc1ccc(Cl)cc1 (stereo not drawn) | 2.7 µM (inactive) | 0.836 µM (active) | 0.912 µM (active) | 1.79 µM (inactive) | 12.5 µM (inactive) | 8.89 µM (inactive) | 1.31 µM (inactive) | 0.357 µM (active) | 12.6 µM (inactive) |
| C/C(=N\NC(=S)N1CCN(c2ccccn2)CC1)c1nccs1 | 13 µM (inactive) | 0.351 µM (active) |  | 0.574 µM (active) | 6.76 µM (inactive) | 1.05 µM (active) | 0.01 µM (active) | 0.01 µM (active) | 2.02 µM (inactive) |
| Cc1cccc(NC(=O)C(=O)C(C2OC(=O)c3ccccc32)[N+](=O)[O-])c1C (stereo not drawn) | 6.81 µM (inactive) | 2.59 µM (inactive) | 6.43 µM (inactive) | 1.87 µM (inactive) | 17.5 µM (inactive) | 5.98 µM (inactive) | 2.86 µM (inactive) | 8.04 µM (inactive) |  |
| CC(=O)Nc1ccc(/C=c2\sc3nnc(/C=C/c4ccccc4)n3c2=O)cc1 | > 50 µM (inactive) | > 50 µM (inactive) | > 50 µM (inactive) | > 50 µM (inactive) | > 50 µM (inactive) | > 50 µM (inactive) | > 50 µM (inactive) | > 50 µM (inactive) |  |
| Cc1cccc(C(C)(C)C)c1NC(=O)CCl | > 100 µM (inactive) | > 100 µM (inactive) | > 100 µM (inactive) | > 100 µM (inactive) | > 100 µM (inactive) | > 100 µM (inactive) |  | > 100 µM (inactive) |  |
| C/C(=N\NC(=S)N1CCC(C2CCN(C(=S)N/N=C(\C)c3ccccn3)CC2)CC1)c1ccccn1 | 35 µM (inactive) | 64.1 µM (inactive) | > 100 µM (inactive) | > 100 µM (inactive) | 44.3 µM (inactive) | > 100 µM (inactive) |  | 55.3 µM (inactive) |  |
| COc1ccc(C(=O)C(c2ccc(OC)cc2)C2(O)C(=O)Nc3ccccc32)cc1 (stereo not drawn) | > 100 µM (inactive) | > 100 µM (inactive) | > 100 µM (inactive) | > 100 µM (inactive) | > 100 µM (inactive) | > 100 µM (inactive) |  | > 100 µM (inactive) |  |
| Cn1c(=O)c(C(c2ccccc2)c2c(O)c3ccccc3n(C)c2=O)c(O)c2ccccc21 | > 100 µM (inactive) | > 100 µM (inactive) | 88.7 µM (inactive) | > 100 µM (inactive) | > 100 µM (inactive) | > 100 µM (inactive) | > 100 µM (inactive) | > 100 µM (inactive) |  |
